Patent publication US10314308B2, “Microbiocidal benzoxaboroles” (SYNGENTA PARTICIPATIONS AG, priority 2015, dated 2019)

What was measured:
Pythium Ultimum = test: Pythium ultimum / liquid culture (seedling damping off); assay type: cell-based; details: Globisporangium ultimum, potato dextrose broth, 24° C., 2-3 days after application, read-out: disease control (inhibition of growth, photometrically)
[1] = system: Glomerella Lagenarium(Colletotrichum Ladenarium); test: Glomerella lagenarium (Colletotrichum lagenarium) / liquid culture (anthracnose); assay type: cell-based; details: PDB potato dextrose broth, 24° C., 3-4 days after application, read-out: disease control (inhibition of growth, photometrically)
Protocol: (§1) 10 Glomerella Lagenarium(Colletotrichum Ladenarium)/Liquid Culture (Anthracnose) Conidia of the fungus from cryogenic storage were directly mixed into nutrient broth (PDB potato dextrose broth). After placing a DMSO solution of test compound into a 96-well microtiter plate, the nutrient broth containing the fungal spores was added. The test plates were incubated at 24° C. and the inhibition of growth was measured photometrically 3-4 days after application.

[2] = system: Monographella Nivalis(Microdochium Nivale); test: Monographella nivalis (Microdochium nivale) / liquid culture (foot rot cereals); assay type: cell-based; details: PDB potato dextrose broth, 24° C., 4-5 days after application, read-out: disease control (inhibition of growth, photometrically)
Protocol: as §1, with “14 Monographella Nivalis(Microdochium Nivale)/Liquid” for “10 Glomerella Lagenarium(Colletotrichum Ladenarium)/Liquid”, “(Foot Rot Cereals)” for “(Anthracnose)”, “determined” for “measured”, “4-5” for “3-4”

Plasmopara Viticola = test: whole plant or invertebrate; assay type: in vivo; details: foliar, read-out: disease control
[3] = system: Botryotinia Fuckeliana(Botrytis Cinerea); test: Botryotinia fuckeliana (Botrytis cinerea) / liquid culture (gray mould); assay type: cell-based; details: Vogels broth, 24° C., 3-4 days after application, read-out: disease control (inhibition of growth, photometrically)
Protocol: as §1, with “9 Botryotinia Fuckeliana(Botrytis Cinerea)/Liquid” for “10 Glomerella Lagenarium(Colletotrichum Ladenarium)/Liquid”, “(Gray Mould)” for “(Anthracnose)”, “(Vogels” for “(PDB potato dextrose”, “determined” for “measured”

[4] = system: Mycosphaerella Arachidis(Cercospora Arachidicola); test: Mycosphaerella arachidis (Cercospora arachidicola) / liquid culture (early leaf spot); assay type: cell-based; details: PDB potato dextrose broth, 24° C., 4-5 days after application, read-out: disease control (inhibition of growth, photometrically)
Protocol: as §1, with “11 Mycosphaerella Arachidis(Cercospora Arachidicola)/Liquid” for “10 Glomerella Lagenarium(Colletotrichum Ladenarium)/Liquid”, “(Early Leaf Spot)” for “(Anthracnose)”, “determined” for “measured”, “4-5” for “3-4”

[5] = system: Mycosphaerella Graminicola(Septoria Tritici); test: Mycosphaerella graminicola (Septoria tritici) / liquid culture (Septoria blotch); assay type: cell-based; details: Zymoseptoria tritici, PDB potato dextrose broth, 24° C., 4-5 days after application, read-out: disease control (inhibition of growth, photometrically)
Protocol: as §1, with “12 Mycosphaerella Graminicola(Septoria Tritici)/Liquid” for “10 Glomerella Lagenarium(Colletotrichum Ladenarium)/Liquid”, “(Septoria Blotch)” for “(Anthracnose)”, “determined” for “measured”, “4-5” for “3-4”

Gaeumannomyces Graminis = test: Gaeumannomyces graminis / liquid culture (take-all of cereals); assay type: cell-based; details: PDB potato dextrose broth, 24° C., 4-5 days after application, read-out: disease control (inhibition of growth, photometrically)
Protocol: 13 Gaeumannomyces Graminis/Liquid Culture (Take-all of Cereals) Mycelial fragments of the fungus from cryogenic storage were directly mixed into nutrient broth (PDB potato dextrose broth). After placing a DMSO solution of test compound into a 96-well microtiter plate, the nutrient broth containing the fungal spores is added. The test plates were incubated at 24° C. and the inhibition of growth was determined photometrically 4-5 days after application.

Fusarium Culmorum = test: microbe, parasite or virus in culture; assay type: cell-based; details: read-out: disease control (inhibition of growth, photometrically)
[6] = system: Thanatephorus Cucumeris(Rhizoctonia Solani); test: Thanatephorus cucumeris (Rhizoctonia solani) / liquid culture (foot rot, damping-off); assay type: cell-based; details: PDB potato dextrose broth, 24° C., 3-4 days after application, read-out: disease control (inhibition of growth, photometrically)
Protocol: 16 Thanatephorus Cucumeris(Rhizoctonia Solani)/Liquid Culture (Foot Rot, Damping-Off) Mycelia fragments of a newly grown liquid culture of the fungus were directly mixed into nutrient broth (PDB potato dextrose broth). After placing a DMSO solution of the test compounds into a 96-well microtiter plate at an application rate of 200 ppm, the nutrient broth containing the fungal material was added. The test plates were incubated at 24° C. and the inhibition of growth was determined photometrically 3-4 days after application.

Sclerotinia Sclerotiorum = test: Sclerotinia sclerotiorum / liquid culture (cottony rot); assay type: cell-based; details: PDB potato dextrose broth, 24° C., 3-4 days after application, read-out: disease control (inhibition of growth, visually)
Protocol: 17 Sclerotinia Sclerotiorum/Liquid Culture (Cottony Rot) Mycelia fragments of a newly grown liquid culture of the fungus were directly mixed into nutrient broth (PDB potato dextrose broth). After placing a (DMSO) solution of the test compounds into a microtiter plate (96-well format) the nutrient broth containing the fungal material was added. The test plates were incubated at 24° C. and the inhibition of growth was determined visually 3-4 days after application.

[7] = system: Phaeosphaeria Nodorum (Septoria Nodorum); test: Phaeosphaeria nodorum (Septoria nodorum) / wheat / leaf disc preventative (glume blotch); assay type: in vivo; details: Parastagonospora nodorum, foliar, wheat leaf segments cv Kanzler, inoculated 2 days after application, assessed 5-7 days after application, read-out: disease control
Protocol: 5 Phaeosphaeria Nodorum (Septoria Nodorum)/Wheat/Leaf Disc Preventative (Glume Blotch) Wheat leaf segments cv Kanzler were placed on agar in a 24-well plate and sprayed with formulated test compound diluted in water. The leaf disks were inoculated with a spore suspension of the fungus 2 days after application. The inoculated test leaf disks were incubated at 20° C. and 75% relative humidity under a light regime of 12/12 h (light/dark) in a climate cabinet and the activity of a compound was assessed as percent disease control compared to untreated when an appropriate level of disease damage appears in untreated check leaf disks (5-7 days after application).

Row | SMILES | inhibition at 20 ppm (Pythium Ultimum) | inhibition at 20 ppm [1] | inhibition at 20 ppm [2] | melting point | pest or weed control at 200 ppm (Plasmopara Viticola) | inhibition at 20 ppm [3] | inhibition at 20 ppm [4] | inhibition at 20 ppm [5] | inhibition at 20 ppm (Gaeumannomyces Graminis) | inhibition at 20 ppm (Fusarium Culmorum) | inhibition at 20 ppm [6] | inhibition at 20 ppm (Sclerotinia Sclerotiorum) | pest or weed control at 200 ppm [7]
1 | ON=Cc1ccc(-c2cc3c(cc2Cl)COB3O)o1 (single isomer, unassigned) [Compound 22, 5-(5-chloro-1-hydroxy-3H-2,1-benzoxaborol-6-yl)furan-2-carbaldehyde oxime] | ≥ 80% | ≥ 80% | ≥ 80% | 188 to 193 °C | – | – | – | – | – | – | – | – | –
2 | OB1OCc2cc(F)c(-c3ccco3)cc21 [Compound 5] | ≥ 80% | ≥ 80% | ≥ 80% | 155 to 164 °C | ≥ 80% | ≥ 80% | ≥ 80% | ≥ 80% | ≥ 80% | ≥ 80% | ≥ 80% | ≥ 80% | –
3 | OB1OCc2cc(Cl)c(-c3ccccn3)cc21 [Compound 8] | ≥ 80% | ≥ 80% | – | – | ≥ 80% | ≥ 80% | ≥ 80% | ≥ 80% | – | ≥ 80% | – | ≥ 80% | ≥ 80%
4 | O=Cc1ccc(-c2cc3c(cc2Cl)COB3O)o1 [Compound 21, 5-(5-chloro-1-hydroxy-3H-2,1-benzoxaborol-6-yl)furan-2-carbaldehyde] | ≥ 80% | ≥ 80% | ≥ 80% | 145 to 165 °C | ≥ 80% | – | – | ≥ 80% | ≥ 80% | – | – | ≥ 80% | –
5 | Cn1nnc(-c2ccc3c(c2)B(O)OC3)n1 [Compound 31, 5-(1-hydroxy-3H-2,1-benzoxaborol-6-yl)-2-methyl-tetrazole] | ≥ 80% | ≥ 80% | ≥ 80% | 209 to 210 °C | – | – | ≥ 80% | – | – | – | – | – | –
6 | Cc1nc(-c2cc3c(cc2F)COB3O)oc1C [Compound 32, 2-(5-fluoro-1-hydroxy-3H-2,1-benzoxaborol-6-yl)-4,5-dimethyl-oxazole] | ≥ 80% | – | ≥ 80% | 164 to 166 °C | – | – | – | – | – | – | – | – | –
7 | CCc1ccc(-c2cc3c(cc2Cl)COB3O)s1 [Compound 35] | ≥ 80% | ≥ 80% | ≥ 80% | – | ≥ 80% | – | ≥ 80% | ≥ 80% | ≥ 80% | ≥ 80% | ≥ 80% | – | –
8 | Cc1ccc(-c2cc3c(cc2Cl)COB3O)o1 [Compound 36] | ≥ 80% | ≥ 80% | ≥ 80% | – | ≥ 80% | ≥ 80% | ≥ 80% | ≥ 80% | ≥ 80% | ≥ 80% | ≥ 80% | ≥ 80% | –
9 | OCc1ccc(-c2cc3c(cc2Cl)COB3O)o1 [Compound 40] | ≥ 80% | ≥ 80% | ≥ 80% | – | – | ≥ 80% | ≥ 80% | ≥ 80% | ≥ 80% | ≥ 80% | – | ≥ 80% | –
10 | OB1OCc2cc(Cl)c(-c3cocc3Br)cc21 [Compound 44] | ≥ 80% | ≥ 80% | ≥ 80% | – | ≥ 80% | ≥ 80% | ≥ 80% | ≥ 80% | ≥ 80% | ≥ 80% | ≥ 80% | ≥ 80% | –
11 | OB1OCc2cc(Cl)c(-c3sccc3Br)cc21 [Compound 45] | ≥ 80% | ≥ 80% | ≥ 80% | – | ≥ 80% | ≥ 80% | ≥ 80% | ≥ 80% | ≥ 80% | ≥ 80% | ≥ 80% | ≥ 80% | –
12 | OB1OCc2cc(F)c(-c3cncc(Cl)n3)cc21 [Compound 57] | ≥ 80% | – | ≥ 80% | – | ≥ 80% | ≥ 80% | ≥ 80% | ≥ 80% | ≥ 80% | ≥ 80% | – | ≥ 80% | ≥ 80%
13 | OB1OCc2cc(Cl)c(-c3cncc(Cl)n3)cc21 [Compound 68] | ≥ 80% | – | ≥ 80% | – | ≥ 80% | ≥ 80% | ≥ 80% | ≥ 80% | ≥ 80% | – | – | ≥ 80% | ≥ 80%
14 | OB1OCc2cc(Cl)c(-c3cc4ccccc4[nH]3)cc21 [Compound 72] | ≥ 80% | ≥ 80% | ≥ 80% | – | ≥ 80% | – | ≥ 80% | ≥ 80% | ≥ 80% | ≥ 80% | ≥ 80% | – | –
15 | OB1OCc2cc(F)c(-c3ccoc3)cc21 [Compound 75] | ≥ 80% | ≥ 80% | ≥ 80% | – | ≥ 80% | ≥ 80% | ≥ 80% | ≥ 80% | ≥ 80% | ≥ 80% | ≥ 80% | ≥ 80% | –
16 | COc1ncccc1-c1cc2c(cc1F)COB2O [Compound 81] | ≥ 80% | ≥ 80% | ≥ 80% | – | ≥ 80% | – | ≥ 80% | ≥ 80% | ≥ 80% | – | – | ≥ 80% | ≥ 80%
17 | OB1OCc2cc(Cl)c(-c3ccoc3)cc21 [Compound 84] | ≥ 80% | ≥ 80% | ≥ 80% | – | ≥ 80% | – | ≥ 80% | ≥ 80% | ≥ 80% | ≥ 80% | ≥ 80% | ≥ 80% | –
